Results published in patent US11396517B1, “Exo-aza spiro inhibitors of menin-MLL interaction” (Janssen Pharmaceutica NV, priority 2017, dated 2022).
Read-outs that look alike come from different tables or passages of the source.

Experiments:
MOLM14 = test: Proliferation assay B (spheroid assay) MOLM14; format: cell-based, human; conditions: MOLM14 cells, confluence at day 8, absolute IC50, read-out: (3b) Spheroid assay MOLM14 (IC50(μM)) Assay B
Summary of the method: (§1)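 IC50 derived from % effect on day-8 imaged confluence, scaled between DMSO-treated cells (high) and 1 μM staurosporine (low), using a variable-slope fit constrained 0-100%. Cells seeded as spheroids in ultra-low-attachment plates and exposed to compound for 8 days, 0.3% DMSO.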

MV-4-11 = test: Proliferation assay B (spheroid assay) MV-4-11; format: cell-based, human; conditions: Homo sapiens, MV4-11, 192 h, MV-4-11 cells, confluence at day 8, absolute IC50; read-out: (3b) Spheroid assay MV-4--11 (IC50(μM)) Assay B
Summary of the method: as §1

K562 = test: Proliferation assay B (spheroid assay) K562 control cell line; format: cell-based; conditions: Homo sapiens, 192 h; K562 cells (MLL wildtype control), confluence at day 8; read-out: (3b) Spheroid assay K562 Assay B
Protocol: 3b) Proliferation Assay B
The anti-proliferative effect of menin/MLL protein/protein interaction inhibitor test compounds was assessed in human leukemia cell lines. The cell lines MV-4-11 and MOLM14 harbor MILL translocations and express the MILL fusion proteins MLL-AF4 and MLL-AF9, respectively, as well as the wildtype protein from the second allele. […] K562 was used as a control cell line containing two MLL wildtype alleles in order to exclude compounds that display general cytotoxic effects.
MV-4-11 and MOLM14 were cultured in RPMI-1640 (Sigma Aldrich) supplemented with 10% fetal bovine serum (HyClone), 2 mM L-glutamine (Sigma Aldrich) and 50 μg/ml gentamycin (Gibco). K562 were propagated in RPMI-1640 (Sigma Aldrich) supplemented with 20% fetal bovine serum (HyClone), 2 mM L-glutamine (Sigma Aldrich) and 50 μg/ml gentamycin (Gibco).
In order to assess the anti-proliferative effects, 1,500 MV-4-11, 300 MOLM14 cells or 750 K562 cells were seeded in 200 μl media per well in 96-well round bottom, ultra-low attachment plates (Costar, catalogue number 7007). Cell seeding numbers were chosen based on growth curves to ensure linear growth throughout the experiment. Test compounds were added at different concentrations and the DMSO content was normalized to 0.3%. Cells were incubated for 8 d at 37° C. and 5% CO2. Spheroid like growth was measured in real-time by live-cell imaging (IncuCyteZOOM, Essenbio, 4× objective) acquiring images at day 8. Confluence (%) as a measure of spheroid size was determined using an integrated analysis tool.
In order to determine the effect of the test compounds over time, the confluence in each well as a measure of spheroid size, was calculated. Confluence […] at the beginning of the experiment (t=0) was used as baseline for the calculation.
Absolute IC50 values were calculated as percent change in confluence as follows:
LC=Low Control: cells treated with 1 μM of the cytotoxic agent staurosporin
HC=High Control: Mean confluence (%) (DMSO treated cells) % Effect=100−(100*(Sample−LC)/(HC−LC))
To determine the IC50 a curve is fitted to the plot of % Effect vs Log 10 compound concentration using a sigmoidal fit with a variable slope and fixing the maximum to 100% and the minimum to 0%.

Row | IC50 (MOLM14; Homo sapiens, MOLM-14, 192 h) [µM] | IC50 (MV-4-11) [µM] | IC50 (K562) [nM] | IC50 (MOLM14) [µM] | Structure (SMILES)
1 | > 3.75 | 2.62 |  |  | FC(F)(F)Cc1cc2c(N3CCC4(CC(Nc5ccc6cc[nH]c6c5)C4)C3)ncnc2s1 (mixture of isomers) [Compound 311]
2 | 0.2 | 0.11 | 14100 |  | O=c1[nH]c2cc(CNC3CCC4(C3)CN(c3ncnc5sc(CC(F)(F)F)cc35)C4)ccc2o1 (single isomer, unassigned) [Compound 58]
3 | 1.05 | 0.26 |  |  | Cn1c(=O)[nH]c2cc(CNC3CCC4(C3)CN(c3ncnc5sc(CC(F)(F)F)cc35)C4)ccc21 (stereo not drawn) [Compound 54]
4 |  | 0.16 |  | 0.62 | CNC(=O)c1ccc(NC2CC3(CCN(c4ncnc5sc(CC(F)(F)F)cc45)C3)C2)cc1 (stereo not drawn) [Compound 93]
